Reference: patent US12667546B2, “Methods for manipulating cell state transitions in cancer” (AGENCY FOR SCIENCE, TECHNOLOGY AND RESEARCH, priority 2018, dated 2026)
Entries after “also recorded” stand apart in the source; their conditions may differ.

Tests used:
NAMEC8, SUM159 and BC2.2 = experiment: Oxygen consumption rate with palmitate (Seahorse); assay type: cell-based, human; settings: supplemented with palmitate
Procedure: FAO rate was measured using the mitochondrial stress test on the XF96 analyzer (Seahorse Bioscience) according to manufacturer's instructions. Cells were seeded in 96well XF96 cell culture plates at a density of 9000 cells/well in complete media. Cells were then incubated with XF modified DMEM assay medium (Seahorse Bioscience) supplemented with 1 mM glutamine, 0.5 mM glucose, 1% FBS and 0.5 mM carnitine the next day for 18 h. On the day of the assay, cells were incubated with FAO assay medium (KHB: 111 mM NaCl, 4.7 mM KCl, 1.25 mM CaCl2), 2 mM MgSO4, 1.2 mM NaH2 PO4 supplemented with 2.5 mM glucose, 0.5 mM carnitine, 5 mM HEPES, adjusted to pH7.4) 45 min prior to the assay in a non-CO2 incubator. Seahorse XF Cell Mito Stress Test compounds (2 μM oligomycin, 2 μM FCCP, 2 μM rotenone). […] Just prior to starting the assay, XF Palmitate-BSA FAO substrate or BSA was added to the cells. Plate was then put into the XF96 analyzer and the XF Cell Mito Stress Test was run using the recommended protocol. Rate of FAO was calculated by the difference in maximal respiration when Palmitate-BSA FAO substrate was supplemented relative to BSA control.

NAMEC8 [1] = experiment: Expression of EMT and lineage markers (qRT-PCR, immunoblot, immunofluorescence) in NAMEC8; assay type: cell-based, human
Procedure: (§1) Cells were rinsed twice in ice-cold PBS. Total RNA was extracted using Trizol (Invitrogen) and column-purified with RNeasy kits (Qiagen). cDNA synthesis was performed with 500 ng of total RNA at 37° C. for 2 h using the SuperScript III First-Strand Synthesis System (Thermo Fisher Scientific), and subsequently diluted 5-fold. mRNA levels were measured with gene-specific primers listed below using the ABI Prism 7900HT Sequence Detection System 2.2 (Applied Biosystems). Results were normalized to GAPDH and analyzed using SDS 2.2 software.
Cells were harvested and scraped from culture dishes in ice-cold PBS. They were then centrifuged at 12000 rpm for 5 min at 4° C. The pellets were then snap frozen in liquid nitrogen or lysed in ice-cold RIPA lysis buffer (Thermo Scientific) and left on ice for 30 min. Subsequently, the lysates were centrifuged at 12000 rpm for 10 min at 4° C. The supernatants were then aspirated and placed in fresh tubes. Protein concentrations were determined using Coomaisse Blue. 50-80 μg total protein was mixed with NuPAGE™ LDS sample buffer and heated at 70° C. for 10 min. Samples were loaded into NuPAGE™ 4-12% Bis-Tris gels (precast polyacrylamide gel; Invitrogen™). Gel electrophoresis was done at 200V for 1.5 h and then blotted onto nitrocellulose membranes (Trans-Blot Turbo™ transfer pack; Bio-Rad). The membranes were blocked with 5% skimmed milk in Tris-buffered saline (TBS; 1st BASE) with 0.1% Tween-20 (Santa Cruz), and then incubated with primary antibodies overnight at 4° C. Thereafter, the membranes were incubated with a horseradish peroxidase (HRP)-conjugated secondary antibody at room temperature for one hour. Finally, the immunoreactive proteins were visualized by using an enhanced chemiluminescent (ECL) reagent (Thermo Scientific, 34075) with the Chemidoc™ Imager (Bio-Rad, 17001401).
Cell cultures were fixed in 4% paraformaldehyde and permeabilized with 0.25% Triton X-100, followed by blocking with 1% bovine serum albumin in PBST. Cells were incubated in specific primary antibodies, followed by the appropriate secondary antibodies conjugated with Alexa Fluor-488 or -594 (Molecular Probes). Cell nuclei were then stained with DAPI and then viewed and imaged with an Axio Observer D1 epifluorescence microscope with a built-in AxioCamMR3 camera (Zeiss), using the optimal filters and 100-200× magnifications.

[2] = tested on: NAMEC8-Ras, BC2.2 and BC22.1 tumors; experiment: Xenograft treatment with oral bexarotene; assay type: in vivo, NSG mice
Description: Primary human breast cancer samples were obtained from the National Cancer Centre Singapore (NCCS) with patients' consent and under an IRB approved protocol (2015/2976). All animal experiments were approved by the Agency for Science Technology and Research Singapore-Biological Resource Centre IACUC (Protocol number 171286). Patient-derived breast tumor fragments (approximately 3×1×1 mm) were inserted bilaterally into the inguinal mammary fat pads of 6-8 week-old NSG female mice for initial establishment of tumors, and subsequently expanded in NSG mice once established. In this study, established tumor fragments of BC2.2 were implanted into cohorts of 6-8 week-old female NSG mice. For BC22.1, 1×10^6 cells were injected subcutaneously into both flanks of NSG mice.
All animal experiments were approved by the Agency for Science Technology and Research Singapore-Biological Resource Centre IACUC (Protocol number 140940). For pre-treated SUM159 and MCF7-Ras cells, 1×10^6 cells were suspended in 100 μl media containing 50% matrigel and injected subcutaneously into both flanks of female NSG mice. The NSG mice were checked for tumor by palpation once a week and tumors were harvested when they reached ˜15 mm in diameter. For treatment in NSG mice, 1×10^5 NAMEC8-Ras cells were suspended in 100 μl media containing 50% matrigel and injected subcutaneously into both flanks of NSG mice. The NSG mice were checked for tumor formation by palpation and when tumors were about 3 mm, mice were randomized into two groups: vehicle (5% DMSO in corn oil) and treatment (Bexarotene, 100 mg/kg/day oral dosing). Tumor size was measured every week using Vernier calipers and mice were sacrificed when tumors reached ˜15 mm or after ˜4 weeks of treatment. For patient-derived cells, 2×10^6 cells were injected subcutaneously per site in NSG mice. […]
The tumor sections were fixed overnight in 4% paraformaldehyde, immersed in 70% ethanol, and sent to the Advanced Molecular Pathlogy Lab, IMCB for paraffinization. […] The fluorescence image analysis and the fluorescence overlay image were obtained with the Axio Vision Rel. […]

NAMEC8 [3] = experiment: Dose response to Raloxifene HCl of bexarotene-treated cells; assay type: cell-based, human; settings: bexarotene-treated vs DMSO cells
Description: Data were normalized to vehicle controls.

SUM159 PACR cells = experiment: Cell viability IC50 in SUM159 PACR cells; settings: SUM159 PACR
SUM159 = experiment: Expression of EMT and lineage markers in SUM159; assay type: cell-based, human
Procedure: as §1
Cells were harvested and scraped from culture dishes in ice-cold PBS. They were then centrifuged at 12000 rpm for 5 min at 4° C. The pellets were then snap frozen in liquid nitrogen or lysed in ice-cold RIPA lysis buffer (Thermo Scientific) and left on ice for 30 min. Subsequently, the lysates were centrifuged at 12000 rpm for 10 min at 4° C. The supernatants were then aspirated and placed in fresh tubes. Protein concentrations were determined using Coomaisse Blue. 50-80 μg total protein was mixed with NuPAGE™ LDS sample buffer and heated at 70° C. for 10 min. Samples were loaded into NuPAGE™ 4-12% Bis-Tris gels (precast polyacrylamide gel; Invitrogen™). Gel electrophoresis was done at 200V for 1.5 h and then blotted onto nitrocellulose membranes (Trans-Blot Turbo™ transfer pack; Bio-Rad). […]

[4] = tested on: NAMEC8-SERPINE1prom-Luc cells; experiment: Renilla-luciferase (constitutive CMV promoter) readout for cell numbers; assay type: cell-based, human; settings: Homo sapiens, 72 h, primary screen; Renilla as readout for cell numbers; relative to DMSO; read-out: % Avr Renilla from DMSO

## C=C(c1ccc(C(=O)O)cc1)c1cc2c(cc1C)C(C)(C)CCC2(C)C [Bexarotene]
NAMEC8, SUM159 and BC2.2
  oxygen consumption rate (OCR): lower OCR when supplemented with palmitate
NAMEC8 [1]; drugs removed for at least seven days
  MET phenotype: induction and durability after drug withdrawal: gradually reverted to a more mesenchymal cell phenotype; also recorded: could cause an MET
NAMEC8 [1]; transcript and protein
  expression of EMT and basal/luminal markers: downregulation of mesenchymal signature markers (ZEB1, SERPINE1, FN1, SLUG) and the concomitant gain of epithelial marker CDH1
[2]; 100 mg/kg/day oral dosing vs vehicle
  tumor growth rate and burden: significant reductions in tumor growth rate and burden
[2]; STRA6, CRAPBP2, DHRS3, ANGPTL4, IP6K3, ACSL5
  retinoid target gene expressions in tumors: upregulated by at least two-fold
[2]; tumors from bexarotene-treated mice
  EMT markers in tumor sections (immunofluorescence): expression of E-cadherin, and the loss of fibronectin
NAMEC8 [3]
  difference in drug sensitivity to Raloxifene hydrochloride: moderate two-fold
SUM159 PACR cells
  sensitivity to 5-FU of bexarotene-treated PACR cells: gained sensitivity to an alternative chemotherapeutic drug, 5-flurouracil (5-FU)
SUM159
  expression of EMT and lineage markers / epithelial features: downregulation of mesenchymal signature markers (ZEB1, SERPINE1, FN1, SLUG) and the concomitant gain of epithelial marker CDH1
[4]
  viability at 10 µM: 87.5%
